Experimental findings from PubChem BioAssay AID652002 (Sanford-Burnham Center for Chemical Genomics, 2013) are described below.

Active and inactive are the calls of the source. How the calls were made is not given here.

Assay [1] is described as follows: TRAIL sensitizers in caspase-8 expressing neuroblastoma cells, dose response, NB7 cells plus caspase-8, luminescence, panel (AID 652002). Conditions: NB7 neuroblastoma +caspase-8, no TRAIL, compound-alone cytotoxicity counter-screen, luminescence viability, NB7+Caspase-8.
For another assay, the target named is NB7+Caspase-8. The description is as above. The settings on record: NB7 neuroblastoma +caspase-8, TRAIL sensitization, luminescence viability, with TRAIL.
Assay [2] deals with Tumor necrosis factor receptor superfamily member 10B (Homo sapiens) (UniProt O14763). Described as above. Conditions: NB7 neuroblastoma +caspase-8, TRAIL sensitization, luminescence viability; NB7+Caspase-8; with TRAIL, mean of runs.
The mark [3] stands for this setting: run 1, single replicate panel EC50.
[4] abbreviates: run 2, single replicate panel EC50.

Tumor necrosis factor receptor superfamily member 10B (Homo sapiens), sequence (O14763 whole entry, looked up): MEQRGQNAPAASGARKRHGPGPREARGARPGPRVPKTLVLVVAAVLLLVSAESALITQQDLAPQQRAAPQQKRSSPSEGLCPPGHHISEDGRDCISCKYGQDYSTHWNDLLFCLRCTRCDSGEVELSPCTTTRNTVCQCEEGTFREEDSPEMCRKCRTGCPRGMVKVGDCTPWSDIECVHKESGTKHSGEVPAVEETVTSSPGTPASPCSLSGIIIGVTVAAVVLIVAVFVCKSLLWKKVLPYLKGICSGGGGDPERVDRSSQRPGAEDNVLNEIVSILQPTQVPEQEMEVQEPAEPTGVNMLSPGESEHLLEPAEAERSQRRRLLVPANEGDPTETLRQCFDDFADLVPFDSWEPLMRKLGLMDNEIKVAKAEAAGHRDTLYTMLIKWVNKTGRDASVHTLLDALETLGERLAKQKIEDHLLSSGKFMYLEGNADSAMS

Take `COc1ccc(-c2nnc(SCC(=O)c3[nH]c(C)c(C(C)=O)c3C)o2)cc1`: the EC50 in assay [1] (mean of runs) is > 12.5 µM (inactive); in assay [1] (setting [3]) it was more than 12.5 µM; in assay [1] (setting [4]) it was more than 12.5 µM; on NB7+Caspase-8 (setting [3]), more than 12.5 µM; on NB7+Caspase-8 (setting [4]) it was more than 12.5 µM; in assay [2], > 12.5 µM (inactive).

With `Cc1c(P(=S)(c2ccccc2)c2ccccc2)[n+]2ccccc2n1CCc1ccccc1`, the EC50 is > 12.5 µM (inactive) in assay [1] (mean of runs); more than 12.5 µM in assay [1] (setting [3]); more than 12.5 µM in assay [1] (setting [4]); more than 12.5 µM on NB7+Caspase-8 (setting [3]); more than 12.5 µM at NB7+Caspase-8 (setting [4]); > 12.5 µM (inactive) in assay [2].

Consider `CC(=O)c1ccc(NC(=O)Nc2cccnc2)cc1`, for which the EC50 result in assay [1] (mean of runs) and in assay [2] was “inactive” throughout. Besides, the EC50 is 11.4 µM in assay [1] (setting [3]), 10.2 µM in assay [1] (setting [4]), more than 12.5 µM at NB7+Caspase-8 (setting [3]) and 9.72 µM at NB7+Caspase-8 (setting [4]).

By EC50 is commonly meant the midpoint of the concentration-response curve.
